What was measured:
Assay type in all cases: cell-based, human
[1] = tested on: phospho-ERK; assay: Western analysis of phospho-ERK in RL95-2 cells; conditions: compared to control cells; total ERK as reference
Method: When PME-1 was depleted with shRNA, there was a decrease in phospho-ERK compared to control cells.
15 μg of protein was used for western analysis. PME-1 antibody (Santa Cruz) and COXIV (Cell Signaling Technologies) were used for detection of proteins and the blots were developed using chemiluminescence (Pierce ECL Western Blotting Substrate—Thermo Scientific) on the GE ImageQuant LAS 4000. For analysis of Akt, ERK, and β-catenin signaling in tissue culture, western analyses were completed as follows. RL95-2 cells stably infected with lentivirus expressing constructs were selected with puromycin (Invivogen). The cells were incubated with either 50 μM Akt inhibitor (LY 294002, Cell Signaling Technologies) or 40 μM ERK inhibitor (V0126, Cell Signaling Technologies) for 1-2 hours at 37° C. 1.5× Laemelli buffer (0.5 M Tris pH6.8, […], 10% sodium dodecyl sulfate, 100 mM EDTA) was used to prepare cell lysates. 20 μg of protein was used for western analysis. Primary antibodies used were: P-Akt (Ser473), P-Akt (Thr308), pan-Akt, P-ERK (Thr202/204), total ERK (Cell Signaling Technologies), PME-1 (Santa Cruz), phospho-β-catenin (Ser45, Cell Signaling Technologies), phospho-β-catenin (Ser33/37/Thr41, Cell Signaling Technologies), β-catenin (Abcam), DcR2 (Abcam), and GAPDH (Abcam). All experiments were repeated several times with similar results.

[2] = tested on: RL95-2 cells; assay: Colony forming / invasive growth assay in Matrigel; conditions: RL95-2 in Matrigel
Method: To determine if PME-1 contributes to the more invasive and metastatic phenotypes, we performed a colony forming assay in matrigel.
The 3D On Top Matrigel Assay was completed in 24 well dishes as described previously {Lee, 2007 #1577}. Briefly, the bottoms of 24 well dishes were coated with 50 μl BD Matrigel Basement Matrix Phenol Red Free (BD Biosciences cat. #356237) and allowed to solidify at 37° C. 10^5 cells were suspended in 250 μl chilled medium containing either 10 ng/ml of TGF-b or vehicle and allowed to settle at 37° C. for 30 minutes. Chilled medium containing 10% of Matrigel was added by pipetting gently down the sidewall of the well and incubated at 37° C. for ten days changing top medium every second day. Colony counts were performed on the tenth day, averages were taken from three fields of view using a 10× objective. Experiment was repeated three times.

[3] = tested on: RL95-2 cells; assay: Immunofluorescence for phosphorylated histone H3 (mitotic cells); conditions: −PME-1 cells compared to control cells
Method: Endometrial cancer cells were stained for phosphorylated histone H3 on serine 10, a marker of mitotic cells, followed by counterstaining with DAPI (FIG. 12) to identify all cells.
For analysis of patient samples, tissues were blocked for 2 hr with 10% FBS in TBST for at RT, incubated with each primary antibody (together) overnight at 4° C., washed three times for 15 min in TBST, incubated with each secondary fluorescent antibody (together) for 1 hr at RT, washed again as above, stained with DAPI and mounted with cover-slips using vectashield mounting media (Vector Labs). Primary antibodies used were for PME-1 (Santa Cruz), E-cadherin (Millipore), and vimentin (Genscript). 1×10^3RL95-2 cells were plated on a chamber slide and were incubated overnight at 37° C. Slides were fixed with 4% paraformaldehyde (PFA) on ice for two hours. The cells were incubated with the primary antibody to Histone 3 (pH3) phosphorylated at Ser10 (1:200, Cell Signaling Technologies) overnight and developed with the secondary anti-rabbit Alexa-Fluor 555 antibody (Cell Signaling Technologies). DAPI was used as a nuclear counter-stain (Sigma Aldrich). Images were taken with the Nikon Eclipse TE2000 at 20×.

[4] = tested on: RL95-2 cells; assay: Foci forming assay in RL95-2 cells; conditions: RL95-2, PME-1 depleted, compared to control cells
Method: A foci forming assay was used in this study to monitor cell growth. Equal amounts of cells were plated and they were allowed to grow for a determined period of time (see Materials and Methods section for details). The foci that were formed were then stained with the crystal violet dye. Cells were washed […] with PBS prior to visualization. Numbers of foci were counted and results were averaged among different experiments.
To determine if the loss of active PME-1 accounted for the observed decrease in foci formation, we first treated RL95-2 cells with siRNA against the 3′-UTR of PPME1 to decrease endogenous levels of PME-1. […] The S156A PME-1 mutant is not capable of demethylating its target, PP2A.
1,000 cells were plated in a six well tissue culture dish in selection media (to include 5 μg/ml puromycin) (InvivoGen). Cells were allowed to adhere and grow in a 5% CO2, 37° C. incubator for 10 to 14 days. Media was replaced every fourth day. Cells were stained with 1% crystal violet (Sigma Aldrich) for five minutes and rinsed with PBS. Colonies were counted and data is presented as the percentage of change compared to the control. All Experiments were repeated at least three times.

[5] = tested on: PPME1; assay: qRT-PCR of PPME1 (PME-1) expression in RL95-2 cells; conditions: RL95-2, normalized to 18S, vs shSCR
Method: In this study, we transfected RL95-2 cells to express empty vector (Control), over-expressing PME-1 (+PME-1) or expressing shRNA against PME-1 (−PME-1) followed by serum starvation for 24 hours. Afterwards, either vehicle or TGF-β treatment was performed at the end of the 24 hours. TGF-β was used to induce cells to initiate the EMT program. Gene expression analysis was conducted using quantitative real-time PCR.
Using RL95-2 endometrial cancer cells, we overexpressed PME-1 (FIG. 21A) or depleted PME-1 with shRNA (FIG. 21B) and confirmed that PME-1 was appropriately expressed.
Total RNA was extracted with Qiagen RNAEasy kit from RL95-2 cells. cDNA was synthesized using 500 ng-1 μg of RNA and SuperScript VILO c-DNA mix (Life Technologies). Taqman probes and PCR-mix were purchased from Life Technologies. All samples were run in triplicates. Results are representative of three independent experiments in which genes of interest were normalized to the house-keeping gene, 18S or GAPDH, where fold-change was calculated using the ddCt method.

In the case of “shPPME1 no. 2: shRNA targeting PPME1, SEQ ID NO: 2: GCAGCGATTATTAGTAGAGTT, bp 289-309; used for all subsequent experiments (guide GCAGCGATTATTAGTAGAGTT; listed as Homo sapiens)”, the phospho-ERK [1] is reported as “decrease”, the “decrease in colony formation” value ([2]; 10 days, vs control cells) is reported as 50% and the “colonies number and size” value ([2]; −TGF-β, compared to control cells) is reported as “fewer and smaller colonies”. For the same substance, the “decreased proliferation (phospho-histone H3 positive cells)” value [3] was roughly 30%, the decrease in foci [4] was 75% and the PME-1 knocked down [5] was greater than 50%.
